Laboratory results reported in patent publication US5202309A, “Antibiotic cyclopeptide fermentation product” (Merck & Co., Inc., priority 1991, dated 1993).
Numbered stars: 1 amine (or outer) side, 2 acyl side, 3 side chain; on linkers, the order of the positions; unused ones are H or OH. Bridge positions count the residues as written; N and C are the ends. Square brackets hold non-standard residues; d marks the D form. Peptide text beside a SMILES is read from it. * marks the point of attachment. Orn(4R-OH,5R-OH) = O=C([C@H](C[C@@H](O)[C@@H](O)N[*:3])N[*:1])[*:2]; Tetradecanoyl(10R,12S-Me2) = CC[C@H](C)C[C@H](C)CCCCCCCCC(=O)*; hTyr(3S-OH,4S-OH) = N[C@H](C(=O)O)[C@H](O)[C@@H](O)c1ccc(O)cc1; Gln(3R-OH) = NC(=O)C[C@@H](O)[C@H](N)C(=O)O; Pro(3S-OH) = O=C(O)[C@H]1NCC[C@@H]1O; Hyp = O=C(O)[C@@H]1C[C@@H](O)CN1

How the values were obtained:
[1] = test system: Candida parapsilosis; assay: Microbroth dilution assay in YNBD, minimum fungicidal concentration; format: cell-based; conditions: Candida parapsilosis MY 1010, 35° C. 24 hours, then Sabouraud dextrose agar 24 hours at 28° C.
Experimental: (§1) The compounds were further diluted to 256 μg/ml in YNBD. […] After incubation, each culture was diluted in sterile water to yield a final concentration of 1-5×10^6 colony forming units (CFU)/ml.

[2] = test system: Candida albicans; assay: as above; format: cell-based; conditions: then Sabouraud dextrose agar 24 hours at 28° C.
Experimental: as §1

Question: How did the “Minimum Fungicidal Concentration” value [1] turn out when `CC[C@H](C)C[C@H](C)CCCCCCCCC(=O)N[C@H]1C[C@@H](O)[C@@H](O)NC(=O)[C@@H]2[C@@H](O)CCN2C(=O)[C@H]([C@H](O)CC(N)=O)NC(=O)[C@H]([C@H](O)[C@@H](O)c2ccc(O)cc2)NC(=O)[C@@H]2C[C@@H](O)CN2C(=O)[C@H]([C@@H](C)O)NC1=O` [Compound I, 1-[4,5-dihydroxy-N^2-(10,12-dimethyl-1-oxotetradecyl)ornithine]-5-(3-hydroxy-glutamine)-6-(3-hydroxyproline)echinocandin B] ({Tetradecanoyl(10R,12S-Me2)}-[Orn(4R-OH,5R-OH)]T[Hyp][hTyr(3S-OH,4S-OH)][Gln(3R-OH)][Pro(3S-OH)]; lactam 1-C) was run?
Answer: The value was 8.0 µg/mL.

Question: What about the “Minimum Fungicidal Concentration” value ([2]; Candida albicans MY 1208, 35° C. 24 hours) of the same compound?
Answer: The value was 0.5 µg/mL.

Question: What about the “Minimum Fungicidal Concentration” value ([2]; Candida albicans MY 1783, 35° C. 24 hours) of the same compound?
Answer: Its value is 0.5 µg/mL.
